The values that follow are results of earlier work, collected in patent EP1928431B1, “CONTROLLED RELEASE PHARMACEUTICAL COMPOSITION CONTAINING CARVEDILOL” (Egis Gyógyszergyár Nyilvánosan Múködö Részvénytársaság, priority 2005, dated 2007).

Broadly, the solubility is the concentration that dissolves in the medium under given conditions.

The structures appear in SMILES notation. Values after ≈ are worked out from the molar mass of the structure shown. Where two headings read alike, the source gives them in different places.

The conditions of data set [1]: in water.
The conditions of data set [2]: orally administered and absorbed taken as 100%.
For data set [3] the following is noted: WO01/35958.

As for `COc1ccccc1OCCNCC(O)COc1cccc2[nH]c3ccccc3c12` (stereo not drawn) [carvedilol, 1-[9'H-carbazol-4'-yloxy]-3-[{2"-(2""-<methoxy>-phenoxy)-ethyl}-amino]-propan-2-ol], the solubility in data set [1] (pH 1) was 1000 µg/mL (≈ 2460 µM); in data set [1] (pH 8) it was 10 µg/mL (≈ 24.6 µM). The absorption in data set [2] (administered in ileum) is listed as 28%; in data set [2] (administered in the colon) it was 7%; in data set [2] (administered in the jejunum) it was 56%. Besides, in data set [3], the solubility in water was 10 µg/mL (≈ 24.6 µM).
